Test results taken from PubChem BioAssay (NCI).
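A five-concentration, 48-hour dose response in 96-well plates underlies each endpoint, interpolated linearly between surrounding concentrations. TGI is the concentration that stops growth completely.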

Key:
Experiment in all cases: inhibition of tumour cell growth, NCI panel, 48 h
786-0 renal = test system: 786-0 renal
A549 NSCLC = test system: A549 NSCLC
ACHN renal = test system: ACHN renal
CAKI-1 renal = test system: CAKI-1 renal
CCRF-CEM leukemia = test system: CCRF-CEM leukemia
COLO 205 colon = test system: COLO 205 colon
DLD-1 colon = test system: DLD-1 colon
DMS 114 small cell lung = test system: DMS 114 small cell lung
EKVX NSCLC = test system: EKVX NSCLC
HCT-116 colon = test system: HCT-116 colon
HCT-15 colon = test system: HCT-15 colon
HL-60(TB) leukemia = test system: HL-60(TB) leukemia
HOP-18 NSCLC = test system: HOP-18 NSCLC
HOP-62 NSCLC = test system: HOP-62 NSCLC
HOP-92 NSCLC = test system: HOP-92 NSCLC
HT29 colon = test system: HT29 colon
IGROV1 ovarian = test system: IGROV1 ovarian
K-562 leukemia = test system: K-562 leukemia
KM12 colon = test system: KM12 colon
KM20L2 colon = test system: KM20L2 colon
LXFL 529 NSCLC = test system: LXFL 529 NSCLC
M14 melanoma = test system: M14 melanoma
M19-MEL melanoma = test system: M19-MEL melanoma
MALME-3M melanoma = test system: MALME-3M melanoma
MOLT-4 leukemia = test system: MOLT-4 leukemia
NCI-H226 lung = test system: NCI-H226 lung
NCI-H23 lung = test system: NCI-H23 lung
NCI-H460 lung = test system: NCI-H460 lung
NCI-H522 lung = test system: NCI-H522 lung
OVCAR-3 ovarian = test system: OVCAR-3 ovarian
OVCAR-4 ovarian = test system: OVCAR-4 ovarian
OVCAR-8 ovarian = test system: OVCAR-8 ovarian
RPMI-8226 leukemia = test system: RPMI-8226 leukemia
RXF 393 renal = test system: RXF 393 renal
RXF-631 renal = test system: RXF-631 renal
SF-268 CNS = test system: SF-268 CNS
SF-295 CNS = test system: SF-295 CNS
SF-539 CNS = test system: SF-539 CNS
SK-MEL-2 melanoma = test system: SK-MEL-2 melanoma
SK-MEL-28 melanoma = test system: SK-MEL-28 melanoma
SK-MEL-5 melanoma = test system: SK-MEL-5 melanoma
SK-OV-3 ovarian = test system: SK-OV-3 ovarian
SN12C renal = test system: SN12C renal
SNB-19 CNS = test system: SNB-19 CNS
SNB-75 CNS = test system: SNB-75 CNS
SR leukemia = test system: SR leukemia
SW-620 colon = test system: SW-620 colon
TK-10 renal = test system: TK-10 renal
U251 CNS = test system: U251 CNS
UACC-257 melanoma = test system: UACC-257 melanoma
UACC-62 melanoma = test system: UACC-62 melanoma
UO-31 renal = test system: UO-31 renal
XF 498 CNS = test system: XF 498 CNS
DMS 273 small cell lung = test system: DMS 273 small cell lung
HCC-2998 colon = test system: HCC-2998 colon
LOX IMVI melanoma = test system: LOX IMVI melanoma
OVCAR-5 ovarian = test system: OVCAR-5 ovarian

Measured: TGI

O=C(O)C1=CN=C(C(=O)O)NN1
not listed: DMS 273 small cell lung | HCC-2998 colon | LOX IMVI melanoma | OVCAR-5 ovarian
> 100 µM: all other assays above

Cc1nc2sccn2c1C(=O)N/N=C1\SCC(=O)N1C
not listed: M14 melanoma | OVCAR-4 ovarian | SNB-75 CNS | UO-31 renal
> 100 µM: all other assays above
